Assay results: patent publication US4354033A, “Anthranilic acid esters” (Council of Scientific & Industrial Research, priority 1981, dated 1982)

Legend:
[1] = test system: cotton pellet granuloma; test: Cotton pellet granuloma; format: in vivo; conditions: 100 mg/kg orally daily for 7 days
[2] = Ulcerogenic properties; format: in vivo; conditions: 100 mg/kg daily orally for 7 days
[3] = Anti-inflammatory activity in a battery of tests (summary statement); format: in vivo
[4] = test system: formaldehyde induced arthritis; test: Formaldehyde arthritis; format: in vivo; conditions: 100 mg/kg orally daily for 10 days
[5] = test system: carrageenin oedema; test: Antiinflammatory action (rats), carrageenin oedema; format: in vivo; conditions: for inhibition of carrageenin oedema: 200 mg/kg (p.o.); for inhibition (carrageenin): rats, 100 mg/kg p.o.
Protocol: Antiinflammatory action (Rats): Dose: 100 mg/kg p.o.
(ii) It produces 30% inhibition when given 1/2 hour before the injection of carrageenin.
Effect on carrageenin oedema at 200 mg/kg (p.o.)
(i) 60% inhibition when given 1 hour before the injection of carrageenin.
(iii) 62% of inhibition when given 1/2 hour after the injection of carrageenin.
Antiinflammatory action (Rats)
Effect on carrageenin oedema at 200 mg/kg

[6] = LD50 i.p. in mice; conditions: mouse, in vivo, ip
[7] = test system: capillary permeability; conditions: at 100 mg
[8] = 1/2 hour after injection of carrageenin
[9] = 1/2 hour before injection of carrageenin

Structure (SMILES): O=C(COC(=O)c1ccccc1NCCc1ccccc1)c1ccccc1 [2-N-β-phenethyl phenacyl anthranilate, 2-N-β-phenethyl-phenacyl anthranilate]
- inhibition of cotton pellet granuloma [1]: 31%
- ulcerogenic activity [2]: does not show any ulcerogenic activity
- anti-inflammatory activity [3]: potent anti-inflammatory activity
- inhibition of formaldehyde induced arthritis [4]: 14%
- inhibition of carrageenin oedema [5, 8]: 62%
- inhibition of carrageenin oedema [5, 9]: 43%
- inhibition of carrageenin oedema ([5]; 1 hour before injection of carrageenin): 60%
- inhibition (carrageenin) [5, 8]: 43%
- inhibition (carrageenin) [5, 9]: 30%
- inhibition (carrageenin) ([5]; one hour before injection of carrageenin): 44.5%
- LD50 [6]: > 800 mg/kg
- inhibition (mouse capillary permeability) [7]: 52%
